Patent US9809562B2, “NAT10 modulators for treating or preventing laminopathies, aging and cancer” (CAMBRIDGE ENTERPRISE LIMITED, priority 2014, dated 2017)
Where a name gives a salt, the structure may show the parent alone.

What was measured:
[1] = target: T1, NAT10 purified from HEK293 cells (Homo sapiens, UniProt Q9H0A0); test: Circular dichroism spectroscopy of purified NAT10; format: binding; details: titration, 10 μM FLAG-NAT10, concentration-dependent
T1 construct: made in house; host or cells: HEK293 (transient transfection, anti-FLAG immunopurification, elution with triple-Flag peptide)
T1 sequence (Q9H0A0 1-1025): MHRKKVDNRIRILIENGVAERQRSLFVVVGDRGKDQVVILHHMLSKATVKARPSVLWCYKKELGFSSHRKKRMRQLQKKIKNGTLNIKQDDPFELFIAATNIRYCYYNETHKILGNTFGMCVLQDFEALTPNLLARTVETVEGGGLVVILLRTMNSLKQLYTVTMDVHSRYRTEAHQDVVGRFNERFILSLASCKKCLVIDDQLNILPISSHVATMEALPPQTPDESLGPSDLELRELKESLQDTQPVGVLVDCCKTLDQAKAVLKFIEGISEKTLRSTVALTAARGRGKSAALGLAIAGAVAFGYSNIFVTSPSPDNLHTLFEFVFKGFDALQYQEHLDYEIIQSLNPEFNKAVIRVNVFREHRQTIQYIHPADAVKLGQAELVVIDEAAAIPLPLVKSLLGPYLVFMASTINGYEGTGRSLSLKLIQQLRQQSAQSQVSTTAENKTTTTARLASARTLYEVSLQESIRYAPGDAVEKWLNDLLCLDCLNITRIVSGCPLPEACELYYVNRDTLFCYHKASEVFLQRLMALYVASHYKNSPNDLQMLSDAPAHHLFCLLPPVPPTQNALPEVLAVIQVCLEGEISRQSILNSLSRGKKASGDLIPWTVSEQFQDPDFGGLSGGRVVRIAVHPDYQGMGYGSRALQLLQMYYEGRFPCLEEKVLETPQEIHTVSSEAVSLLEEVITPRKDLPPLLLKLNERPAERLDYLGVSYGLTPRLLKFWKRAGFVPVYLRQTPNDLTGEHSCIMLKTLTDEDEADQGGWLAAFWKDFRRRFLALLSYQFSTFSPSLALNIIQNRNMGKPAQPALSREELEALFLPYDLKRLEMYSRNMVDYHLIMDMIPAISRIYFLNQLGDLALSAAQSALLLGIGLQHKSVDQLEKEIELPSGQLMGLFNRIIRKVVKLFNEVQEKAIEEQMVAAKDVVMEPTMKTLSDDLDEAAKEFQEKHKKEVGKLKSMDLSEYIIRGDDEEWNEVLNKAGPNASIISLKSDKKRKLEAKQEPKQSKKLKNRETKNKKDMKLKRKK
Procedure: HEK293 cells were transiently transfected with NAT10 constructs and harvested after 48 hours in PBS. Cells were lysed for 5 minutes at room temperature in IP lysis buffer (20 mM Tris pH 7.5, 40 mM NaCl, 2 mM MgCl2, 0.5% NP-40) freshly supplemented with 50 U/ml benzonase and EDTA-free protease inhibitor cocktail (Roche). After this initial lysis step, NaCl concentration was adjusted to 450 mM and samples were incubated at 4° C. with rotation. Lysates were clarified by centrifugation (13,200 rpm, 20 minutes at 4° C.), and after recovery NaCl concentration was equilibrated to 150 mM. Lysates were used for immunoprecipitation reaction in IP buffer (25 mM Tris pH 7.5, 150 mM NaCl, 1.5 mM DTT, 10% glycerol, 0.5% NP-40) supplemented with protease inhibitors. Target proteins were captured with anti-FLAG antibody (M2, Sigma-Aldrich) coupled to protein A/G-Dynabeads (Life Sciences). Complexes were washed with IP buffer containing incrementally increasing amounts of NaCl (250 mM, 500 mM, and 1M). Following this, the immuno-complexes were washed in TBS containing gradually decreasing amounts on NaCl (1M, 500 mM, 250 mM, and 150 mM). […]
CD experiments were performed using a Chirascan Circular Dichroism Spectrophotometer (Applied Photophysics, UK). […] CD scans were recorded at 25° C. over the wavelength range of 180 to 350 nm with a 1 second response time, 1 nm pitch and 1.5-nm bandwidth. […]

[2] = system: main lysine acetyltranferase proteins (KAT); test: In vitro specificity against lysine acetyltransferases; format: biochemical
Lmna^G609G/G609G mice = test: Tubulin acetylation levels in mice; format: in vivo, mouse; details: treated Lmna^G609G/G609G mice
Procedure: As Tubulin is a direct substrate of NAT10, Tubulin acetylation levels in cells derived from HGPS patients (left and bottom panel of FIG. 27) were assessed as well as in Lmna^G609G/G609G mice (right panel of FIG. 27).

Normal fibroblasts = test: Microarray gene expression, normal fibroblasts; format: cell-based, human; details: 1 μM, 12 population doublings
Procedure: Normal fibroblasts or HGPS fibroblasts were kept in culture for 12 population doublings with chronic treatment of 1 μM Compound 2 (top panels of FIG. 29) or transfected with siRNA against NAT10 for 3 days (bottom panels of FIG. 29). RNA was extracted and global gene expression was analysed by microarray. Volcano plots show a very high specificity of Compound 2 towards gene expression regulation of HGPS cells, with about 1000 genes affected more than 2 fold, whereas only 24 genes were affected in normal fibroblasts.

## Clc1ccc(-c2csc(NN=C3CCCC3)n2)cc1 [Compound 2, 4-(4-Chlorophenyl)-2-(2-cyclopentylidenehydrazinyl)thiazole Hydrochloride Salt]
[1]
  NAT10 conformation, absolute molar ellipticity at 210 nm: clear increase in the absolute molar ellipticity
[2]
  inhibition of KAT activity towards histone substrates: does not inhibit the activity of the main lysine acetyltranferase proteins (KAT)
Lmna^G609G/G609G mice
  tubulin acetylation levels: decrease of tubulin acetylation levels
Normal fibroblasts
  number of genes affected: 24 genes
